Measurements published in US11116757B2 (priority 2015, dated 2021).

The molecules below were run against DCN1-UBC12 interaction (Homo sapiens (Human), UniProt Q96GG9) (assay: biochemical). Details: Table 4, commercial compounds; read-out: TR-FRET IC50.
Type: binding

Chain of DCN1-UBC12 interaction (Q96GG9 60-248 limits assumed): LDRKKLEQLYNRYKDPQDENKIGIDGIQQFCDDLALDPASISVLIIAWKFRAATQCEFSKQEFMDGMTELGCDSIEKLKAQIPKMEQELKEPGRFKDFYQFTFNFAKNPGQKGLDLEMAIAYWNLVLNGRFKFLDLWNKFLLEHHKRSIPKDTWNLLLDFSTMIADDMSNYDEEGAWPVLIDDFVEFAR

Molecule | IC50 [µM]
Cc1ccc(NC(=O)C2CCN(C(=O)c3ccccc3C)CC2)cc1C [C22] | > 67.6
COc1ccc(C(=O)N2CCC(C(=O)Nc3cccc(C(F)(F)F)c3)CC2)cc1 [C1, 1-(4-Methoxybenzoyl)-N-(3-(Trifluoromethyl)Phenyl)Piperidine-4-Carboxamide] | 8.07
CC(=O)N1CCC(C(=O)Nc2cccc(C)c2C)CC1 [C41] | > 67.6
COc1ccc(NC(=O)C2CCN(C(=O)N3CCOc4ccccc43)CC2)cc1 [C53] | > 67.6
COCCC(=O)N1CCC(C(=O)Nc2ccc(-c3cc4ccccc4[nH]3)cc2)CC1 [C45] | > 67.6
CC1CN(C(=O)N2CCC(C(=O)Nc3cccc(Cl)c3)CC2)c2ccccc2O1 (centres unmarked) [C51] | > 67.6
O=C(Nc1ccc(F)c(Cl)c1)C1CCN(C(=O)c2ccc(F)cc2)CC1 [C18] | > 67.6
O=C(Nc1ccc(Cl)c(C(F)(F)F)c1)C1CCN(C(=O)c2ccccc2Cl)CC1 [C7] | > 46
O=C(Nc1ccccc1Br)C1CCN(C(=O)c2ccccc2Cl)CC1 [C17] | > 67.6
Cc1ccc(C(=O)N2CCC(C(=O)Nc3ccc(Cl)c(C(F)(F)F)c3)CC2)cc1 [C26] | > 67.6
CSc1cccc(NC(=O)C2CCN(C(=O)c3ccccc3C)CC2)c1 [C5] | 30.1

Same assay, conditions: Table 6, commercial compounds; read-out: TR-FRET IC50

Molecule | IC50 [µM]
CCCN1CCN(C(=O)c2cnn(-c3nccc(-c4cccs4)n3)c2C2CC2)CC1 [E58] | > 67.6
C=CCN(CC=C)C(=O)c1cnn(-c2nccc(-c3cccs3)n2)c1COC [E39] | > 67.6
CSCCCNC(=O)c1cnn(-c2nccc(-c3cccs3)n2)c1C [E51] | > 67.6
CCN(CC)C(=O)c1cnn(-c2nccc(-c3cccs3)n2)c1C1CC1 [E61] | > 71.6
CC(C)c1c(C(=O)N2CCN(CCO)CC2)cnn1-c1nccc(-c2cccs2)n1 [E7] | 21.3

Same assay, conditions: Table 7, commercial compounds; read-out: TR-FRET IC50

Molecule | IC50 [µM]
Cc1cccc(C(=O)NC2C(=O)Nc3c(c(C)nn3-c3ccccc3)C2c2ccc(C#N)cc2)c1 (centres unmarked) [F5] | 35.1
COc1ccc(C(=O)NC2C(=O)Nc3c(c(C)nn3C)C2c2ccc(Cl)c(Cl)c2)cc1OC (centres unmarked) [F30] | > 67.6
CCOc1ccc(C2c3c(C)nn(C)c3NC(=O)C2NC(=O)c2ccc(Cl)cc2)cc1OC (centres unmarked) [F25] | > 67.6

Same assay, conditions: read-out: TR-FRET IC50

Molecule | IC50 [µM]
CCCCN1CCC(N(Cc2ccccc2)C(=O)Nc2ccc(OC)c(Cl)c2)CC1 [A287] | > 72.5
C=CC(=O)Nc1cccc(CN(C(=O)Nc2cccc(C(F)(F)F)c2)C2CCN(C(C)CCC)CC2)c1 (centres unmarked) [drawing 840] | 0.11
CCCC(C)N1CCC(N(Cc2ccccc2)C(=O)Nc2ccc(C)c([N+](=O)[O-])c2)CC1 (centres unmarked) [A36] | 0.206
O=C(Nc1cc(F)cc(C(F)(F)F)c1)N(Cc1ccccc1)C1CCN(CC2CCOC2)CC1 (centres unmarked) [A144] | 4.49
CCCC(C)N1CCC(N(Cc2ccccc2)C(=O)Nc2cccc(OC(F)(F)F)c2)CC1 (centres unmarked) [A12] | 0.0827
CCCCN1CCC(N(Cc2ccccc2)C(=O)Nc2cc(F)cc(C(F)(F)F)c2)CC1 [A45] | 0.256
CCCC(C)N1CCC(N(Cc2ccccc2)C(=O)Nc2cccc(SC)c2)CC1 (centres unmarked) [A44] | 0.254
CC(=O)N1CCC(N(Cc2ccco2)C(=O)Nc2ccc(Br)cc2)CC1 [B73] | > 67.6
CCCC(C)N1CCC(N(Cc2ccccc2)C(=O)Nc2cc(Cl)c(O)c(Cl)c2)CC1 (centres unmarked) [A260] | > 62.5
CCCC(C)N1CCC(N(Cc2ccccc2)C(=O)Nc2cnc(Cl)nc2)CC1 (centres unmarked) [A241] | > 52.4
CCCC(C)N1CCC(N(Cc2ccccc2)C(=O)Nc2cc(F)cc(S(F)(F)(F)(F)F)c2)CC1 (centres unmarked) [A48] | 0.26
CCCC(C)N1CCC(N(Cc2ccccc2)C(=O)Nc2cc(C)cc(C)c2)CC1 (centres unmarked) [A98] | 1.38
CCCN1CCC(NC(=O)Nc2cccc(Cl)c2)CC1 [B117] | > 77.1
O=C(Nc1ccc2c(c1)OCO2)NC1CCN(Cc2ccccc2)CC1 [B22] | > 103
Cc1cc(NC(=O)NC2C(C)CN(Cc3ccccc3)CC2C)no1 (centres unmarked) [B121] | > 81.9
CCCC(C)N1CCC(N(Cc2ccccc2)C(=O)Nc2ccc(Cl)cc2C#N)CC1 (centres unmarked) [A141] | 4.22
COc1ccc(NC(=O)N(Cc2ccco2)C2CCN(C(C)=O)CC2)cc1 [B70] | > 67.6
CCCN1CCC(NC(=O)Nc2ccc(C)c(Cl)c2)CC1 [B34] | > 55.5
O=C(Nc1cccc(I)c1)NC1CCN(Cc2ccccc2)CC1 [B98] | > 67.6
CCCCN1CCC(N(Cc2ccccc2)C(=O)Nc2cccc(C#N)c2)CC1 [A242] | > 52.5
CCCC(C)N1CCC(N(Cc2ccccc2)C(=O)Nc2ccc3c(c2)CCC3)CC1 (centres unmarked) [A8] | 0.0767
CCCC(C)N1CCC(N(Cc2ccccc2)C(=O)Nc2cccc(OC)c2)CC1 (centres unmarked) [A131] | 3.15
C=CS(=O)(=O)NCc1ccccc1CN(C(=O)Nc1cccc(C(F)(F)F)c1)C1CCN(C(C)CCC)CC1 (centres unmarked) [drawing 850] | < 0.01
O=C(Nc1ccccc1)NC1CCN(Cc2ccccc2)CC1 [B20, 1-(1-Benzylpiperidin-4-yl)-3-Phenylurea] | < 0.0041

Molecule | IC50 [µM]
CCCCCN1CCC(N(Cc2ccccc2)C(=O)Nc2cc(F)cc(C(F)(F)F)c2)CC1 [A124] | 1.59
O=C(Nc1ccncc1[NH2+][O-])NC1CCN(Cc2ccccc2)CC1 [B120] | > 79.1
COCCn1ccc(NC(=O)NC2CCN(Cc3ccccc3)CC2)n1 [B35] | > 55.9
CCCC(C)N1CCC(N(Cc2ccccc2)C(=O)Nc2ccc(OC)cc2C)CC1 (centres unmarked) [A275] | > 68.6
CCCC(C)N1CCC(N(Cc2ccccc2)C(=O)Nc2cccc(F)c2C)CC1 (centres unmarked) [A151] | 5.66
O=C(c1ccccc1O)N1CCC(c2nc3ccccc3s2)CC1 [D29] | > 67.6
Cc1ccccc1CN1CCC(NC(=O)Nc2cccc(C(F)(F)F)c2)CC1 [A135] | 3.35
1-Benzyl-1-(1-(Cyclopropylmethyl)Piperidin-4-yl)-3-(3-(Trifluoromethyl)Phenyl)Urea [A30] | 0.178
O=C(Nc1ccc(CN2CCCC2)cc1)Nc1cccc(C(F)(F)F)c1 [B105] | > 71.3
CCCCN(C(=O)Nc1ccc(F)c(C(F)(F)F)c1)C1CCN(C(C)CCC)CC1 (centres unmarked) [A87] | 1.01
O=C(CN1CCN(c2cccc(Cl)c2)CC1)Nc1cccc(C(F)(F)F)c1 [B31] | > 54.3
C=CS(=O)(=O)NCCN(C(=O)Nc1cccc(C(F)(F)F)c1)C1CCN(C(C)CCC)CC1 (centres unmarked) [A235] | > 41.1
CCCC(C)N1CCC(N(Cc2ccccc2)C(=O)Nc2ccc(Oc3ccccc3)c(C(F)(F)F)c2)CC1 (centres unmarked) [A75] | 0.731
CCCC(C)N1CCC(N(Cc2ccccc2)C(=O)Nc2ccc(-c3ccc(C(=O)OC)cc3)cc2)CC1 (centres unmarked) [A278] | > 69.1
COc1cc(OC)cc(C(=O)N2CCC(c3nc4ccccc4s3)CC2)c1 [D22] | > 67.6
O=C(Nc1cc(F)cc(C(F)(F)F)c1)N(Cc1ccccc1)C1CCN(Cc2cncnc2)CC1 [A210] | > 21.7
CCCC(C)N1CCC(N(Cc2ccccc2)C(=O)Nc2cc(F)c(F)c(F)c2)CC1 (centres unmarked) [A59] | 0.355
CCCCN1CCC(N(Cc2ccccc2)C(=O)Nc2cccc(CC)c2)CC1 [A63] | 0.413
CCCC(C)N1CCC(N(Cc2ccccc2)C(=O)Nc2cccc([N+](=O)[O-])c2C)CC1 (centres unmarked) [A161] | 7.94
CC(N1CCC(N(Cc2ccccc2)C(=O)Nc2cccc(C(F)(F)F)c2)CC1)C(F)(F)F (centres unmarked) [A223] | > 25.3
CCc1ccc(NC(=O)NC2CCN(Cc3ccccc3)CC2)cc1 [B52] | > 67.6
Cc1ccc(CN(C(=O)Nc2ccccc2F)C2CCN(Cc3ccccc3)CC2)o1 [B94] | > 67.6
CC(=O)N1CCC(N(Cc2ccco2)C(=O)Nc2ccccc2C(F)(F)F)CC1 [B76] | > 67.6
CCCC(C)N1CCC(N(Cc2ccccc2)C(=O)Nc2ccc3cn[nH]c3c2)CC1 (centres unmarked) [A108] | 2.11

Molecule | IC50 [µM]
CCCC(C)N1CCC(N(Cc2ccccc2)C(=O)Nc2c(C(C)C)cccc2C(C)C)CC1 (centres unmarked) [A173] | 13.1
1-Benzyl-1-(1-Isopentylpiperidin-4-yl)-3-(3-(Trifluoromethyl)Phenyl)Urea [A90] | 1.13
CCCC(C)N1CCC(N(Cc2ccccc2)C(=O)Nc2cc(F)ccc2F)CC1 (centres unmarked) [A281] | > 70.6
CCCC(C)N1CCC(N(Cc2ccccc2)C(=O)Nc2cc(Cl)cc(C(F)(F)F)c2)CC1 (centres unmarked) [A113] | 2.35
CCOC(=O)c1ccccc1NC(=O)N(C(C)C)C1CCN(C(C)=O)CC1 [B66] | > 67.6
C=CS(=O)(=O)NCc1ccccc1CN(C(=O)Nc1cccc(C(F)(F)F)c1)C1CCN(C(C)CCC)CC1 (centres unmarked) [A2] | 0.0068
O=C(Nc1ccn(Cc2ccccn2)n1)NC1CCN(Cc2ccccc2)CC1 [B33] | > 55.4
O=C(c1cccc(Br)c1)N1CCC(c2nc3cc(Cl)ccc3s2)CC1 [D18] | > 60.8
CCCC(C)N1CCC(N(Cc2ccccc2)C(=O)Nc2ccc(OC)cc2OC)CC1 (centres unmarked) [A196] | > 11.8
CCCC(C)N1CCC(N(Cc2ccccc2)C(=O)Nc2ccc(OC)c(Cl)c2)CC1 (centres unmarked) [A138] | 4.05
Cc1cccc(C(=O)N2CCC(c3nc4ccccc4s3)CC2)c1 [D4] | 18
CC(=O)N1CCC(N(Cc2ccco2)C(=O)Nc2ccc(C)c(C)c2)CC1 [B69] | > 67.6
C#CCCCN1CCC(N(Cc2ccccc2NC(=O)CC)C(=O)Nc2cccc(C(F)(F)F)c2)CC1 [A198] | > 12.9
COc1cc(SC)ccc1C(=O)N1CCC(c2nc3ccccc3s2)CC1 [D21] | > 67.6
CCCC(C)N1CCC(N(Cc2ccccc2NC(=O)CCl)C(=O)Nc2cccc(C(F)(F)F)c2)CC1 (centres unmarked) [A38] | 0.208
C=CS(=O)(=O)Nc1cccc(CN(C(=O)Nc2cccc(C(F)(F)F)c2)C2CCN(C(C)CCC)CC2)c1 (centres unmarked) [drawing 844] | 0.165
CCCC(C)N1CCC(N(Cc2ccccc2)C(=O)Nc2ccc(C(=O)OC)cc2I)CC1 (centres unmarked) [A190] | 37.8
COc1ccc(CN(C(=O)Nc2cc(C)ccc2OC)C2CCN(C(C)=O)CC2)cc1 [B87] | > 67.6
O=C(NCC(=O)N1CCC(c2nc3ccccc3s2)CC1)c1cccc(F)c1 [D23] | > 67.6
CCCC(C)N1CCC(N(Cc2ccccc2)C(=O)Nc2ccn(-c3ccc(Cl)cc3)n2)CC1 (centres unmarked) [A153] | 6.47
Cn1nccc1-c1cccc(NC(=O)NC2CCN(Cc3ccccc3)CC2)c1 [A263, 1-(1-Benzylpiperidin-4-yl)-3-(3-(1-Methyl-1H-Pyrazol-5-yl)Phenyl)Urea] | > 64.6
COc1ccc(CN(C(=O)Nc2ccc(Cl)cc2)C2CCN(C(C)=O)CC2)cc1 [B81] | > 67.6
